Experimental data from ChEMBL document CHEMBL3045412, “Antifungal activity and fungal metabolism of steroidal glycosides of Easter lily (Lilium longiflorum Thunb.) by the plant pathogenic fungus, Botrytis cinerea” (2011).
Active and inactive are the calls of the source. No cut-off for these calls is given here.

Experiments:
Botrytis cinerea [1] = experiment: Antifungal activity against Botryotinia fuckeliana assessed as radial mycelia growth inhibition at 25 degC at 100 umol relative to control (crop protection Lilium longiflorum Thunb.); assay type: functional
Botrytis cinerea [2] = experiment: Antifungal activity against Botryotinia fuckeliana assessed as radial mycelia growth inhibition at 25 degC at 1 to 100 umol relative to control (crop protection Lilium longiflorum Thunb.); assay type: functional, organism-based

Row | SMILES | growth inhibition (GI) (Botrytis cinerea [1]) [%] | growth inhibition (GI) (Botrytis cinerea [2])
1 | C[C@H](CC[C@@]1(O)O[C@H]2C[C@H]3[C@@H]4CC=C5C[C@@H](O[C@@H]6O[C@H](CO)[C@@H](O)[C@H](O[C@@H]7OC[C@H](O)[C@@H](O)[C@@H]7O)[C@H]6O[C@@H]6O[C@@H](C)[C@H](O)[C@@H](O)[C@H]6O)CC[C@]5(C)[C@H]4CC[C@]3(C)[C@H]2[C@@H]1C)CO[C@@H]1O[C@H](CO)[C@@H](O)[C@H](O)[C@H]1O | 25 | –
2 | CC(=O)OC[C@H]1O[C@@H](O[C@H]2[C@H](O)[C@@H](O[C@@H]3O[C@@H](C)[C@H](O)[C@@H](O)[C@H]3O)[C@H](O[C@H]3CC[C@@]4(C)C(=CC[C@H]5[C@@H]6C[C@@H]7O[C@]8(CC[C@@H](C)CN8)[C@@H](C)[C@@H]7[C@@]6(C)CC[C@@H]54)C3)O[C@@H]2CO)[C@H](O)[C@@H](O)[C@@H]1O | 49 | –
3 | C[C@H](CC[C@@]1(O)O[C@H]2C[C@H]3[C@@H]4CC=C5C[C@@H](O[C@@H]6O[C@H](CO)[C@@H](O)[C@H](O[C@@H]7OC[C@H](O)[C@H](O)[C@H]7O)[C@H]6O[C@@H]6O[C@@H](C)[C@H](O)[C@@H](O)[C@H]6O)CC[C@]5(C)[C@H]4CC[C@]3(C)[C@H]2[C@@H]1C)CO[C@@H]1O[C@H](CO)[C@@H](O)[C@H](O)[C@H]1O | 25 | –
4 | C[C@H](CC[C@@]1(O)O[C@H]2C[C@H]3[C@@H]4CC=C5C[C@@H](O[C@@H]6O[C@H](CO)[C@@H](O[C@@H]7O[C@H](CO)[C@@H](O)[C@H](O)[C@H]7O)[C@H](O)[C@H]6O[C@@H]6O[C@@H](C)[C@H](O)[C@@H](O)[C@H]6O)CC[C@]5(C)[C@H]4CC[C@]3(C)[C@H]2[C@@H]1C)CO[C@@H]1O[C@H](CO)[C@@H](O)[C@H](O)[C@H]1O | 25 | –
5 | C[C@@H]1CC[C@@]2(NC1)O[C@H]1C[C@H]3[C@@H]4CC=C5C[C@@H](O[C@@H]6O[C@H](CO)[C@@H](O[C@@H]7O[C@H](CO)[C@@H](O)[C@H](O)[C@H]7O)[C@H](O)[C@H]6O[C@@H]6O[C@@H](C)[C@H](O)[C@@H](O)[C@H]6O)CC[C@]5(C)[C@H]4CC[C@]3(C)[C@H]1[C@@H]2C | – | Active
